In US9700603B2, “Use of antidotes to coagulation inhibitors indicated in the prevention or treatment of thromboembolic pathologies” (LABORATOIRE FRANCAIS DU FRACTIONNEMENT ET DES …, priority 2013, dated 2017):

Key:
Assay type in all cases: biochemical
[1] = test system: thrombin generation in normal plasma pool; test: Thrombin generation test (TGT Fluoroskan), extrinsic pathway, TF 1 pM / PL 4 μM
Description: The stock solution of rivaroxaban at 436 μg/mL is diluted in 5% DMSO in order to obtain intermediate concentrations which, added to the NPP (Normal Pool Plasma), give final concentrations of rivaroxaban in μg per mL of plasma.
(§1) The thrombin generation test consists of activating coagulation ex vivo either using a mixture of tissue factor and phospholipids, or using cephalin and then measuring the concentration of thrombin generated over time.
(§2) The reaction is started by the addition of 20 μL of Fluca-kit (substrate+CaCl2) which constitutes the start of the measurement of the appearance of thrombin. The appearance of fluorescence is measured on a fluorometer of the Fluoroskan Ascent type (ThermoLabsystems) at an excitation wavelength of 390 nm and emission wavelength of 460 nm. The thrombinograms (curves representing the intensity of fluorescence as a function of time) are then analyzed using the Thrombinoscope™ software which converts the fluorescence value to nM of thrombin by comparative calculation.

normal plasma pool [2] = test: aPTT with PTT-A; conditions: rivaroxaban 0.35 μg/mL in PNP, no FXa
[3] = test system: thrombin generation in normal plasma pool; test: Thrombin generation test (CAT), intrinsic pathway, cephalin alone
Description: as §1, §2
The reagents, the automated equipment and the experimental protocol are identical to those described in Example 1.

[4] = test system: thrombin generation in normal plasma; test: Thrombin generation (TGT) induced by tissue factor (0.5 pM)
Description: The effect of an overdose of FXa in normal plasma was assessed by measuring thrombin generation (TGT) following induction by tissue factor (0.5 pM) (FIG. 5, Table I). Doses of 0.03 μg/ml to 0.5 μg/ml of FXa were compared. The quantity of thrombin generated depends on the dose of FXa added.
A similar experiment was repeated in the presence of a therapeutic dose of 0.35 μg/ml of Rivaroxaban (FIG. 6, Table I). […] On the other hand, a correction of thrombin generation is obtained starting from 0.06 μg/ml (▪) up to a dose of 0.25 μg/ml (▴).

normal plasma pool [5] = test: Prothrombin time (PT) with RecombiPlastin
[6] = test system: thrombin generation in normal plasma pool; test: Thrombin generation test (TGT Fluoroskan), extrinsic pathway, TF 5 pM / PL 4 μM; conditions: rivaroxaban 0.35 μg/mL in PNP, no FXa
Description: as §1, §2
The reagents, the automaton and the experimental protocol are identical to those described in Example 1. […]

[7] = test system: thrombin generation in normal plasma; test: Thrombin generation (TGT) induced by cephalin
Description: A series of similar experiments is carried out by inducing the initiation of coagulation by cephalin. The series of preliminary experiments mimics the extrinsic activation of coagulation. This second series of experiments mimics the intrinsic activation of coagulation. The presence of FXa in an increasing quantity in normal plasma (●) […] the speed of appearance of thrombin without changing the total quantity of thrombin generated (FIG. 7, Table II). The speed of appearance of the thrombin is correlated with the dose of FXa added. Shorter times to peak are obtained in the presence of FXa.
The effect of FXa following the induction of thrombin generation by cephalin is then measured in the presence of Rivaroxaban at 0.35 μg/ml (FIG. 8, Table II). […] The presence of FXa in an increasing concentration makes it possible to increase the quantity of thrombin generated in a dose-dependent manner, as well as to reduce the time to peak. A maximum quantity of thrombin is obtained in the case of a concentration comprised between 0.125 and 0.25 μg/ml.

[8] = rivaroxaban 0.5 μg/mL in PNP, no FX (Table 2)
[9] = rivaroxaban 0.5 μg/ml in PNP, no FX (Table 1)
[10] = rivaroxaban 0.35 μg/ml in PNP, no FX
[11] = Unicalibrator + 0.35 μg/ml Rivaroxaban, no hFXa

## O=C(NC[C@H]1CN(c2ccc(N3CCOCC3=O)cc2)C(=O)O1)c1ccc(Cl)s1 [rivaroxaban]
[1]; 0.5 μg/mL of Rivaroxaban, activation by tissue factor and phospholipids
  effect on ability to generate thrombin from normal plasma: completely destroys the ability to generate thrombin
[1]; [8]
  LT (lag time): 30.59 min
  Peak: 6.83 nM
  TTP (time to peak): 58.81 min
  mVRI (mean velocity rate index): 0.24 nM/min
[1]; [9]
  LT (lag time): 25.5 min
  Peak: 7.42 nM
  TTP (time to peak): 49.33 min
  mVRI (mean velocity rate index): 0.31 nM/min
Normal plasma pool [2]
  aPTT with PTT-A: 50.5 s
[3]; 0.35 μg/mL of Rivaroxaban, activation with Cephalin
  effect on ability to generate thrombin from normal plasma: completely destroys the ability to generate thrombin
[3]; [10]
  ETP (endogenous thrombin potential): 230.5 nM·min
  LT (lag time): 48.17 min
  Peak: 8.49 nM
  ST (start time): 116 min
  TTP (time to peak): 54 min
  mVRI (mean velocity rate index): 1.46 nM/min
[4]; 0.35 μg/ml of Rivaroxaban
  reduction of thrombin generation versus untreated plasma: approximately 75%
[4]; [11]
  Lag time: 10.17 min
  Peak: 10.69 nM
  ttPeak: 20.5 min
Normal plasma pool [5]; rivaroxaban 0.35 μg/mL in PNP, no FXa
  PT with RecombiPlastin 2G (ISI: 1.0): 26 s
Normal plasma pool [5]; rivaroxaban 0.5 μg/ml in PNP, no FX
  PT (RecombiPlastin ISI: 1.0): 32.5 s
[6]
  ETP (endogenous thrombin potential): 772 nM·min
  LT (lag time): 11.11 min
  Peak: 31.32 nM
  ST (start time): 67 min
  TTP (time to peak): 25.33 min
  mVRI (mean velocity rate index): 2.20 nM/min
[7]; Rivaroxaban at 0.35 μg/ml
  effect on thrombin generation induced by cephalin: completely inhibits thrombin generation
[7]; [11]
  ETP: 0 nM
  Peak: 0 nM
  ttPeak: 0 min
